Measured values taken from US8569578B1, “Generating transgenic potatoes with novel resistance to potato cyst nematodes by silencing nematode parasitism genes of CLE -1 and CLE-4s” (The United States of America, as represented by the …, priority 2009, dated 2013).
Entries after “also recorded” stand apart in the source; their conditions may differ.

Assays:
Type in all cases: in vivo
[1] = system: Arabidopsis (Columbia-0) roots; assay: in vitro root assay with synthetic CLE peptides on Arabidopsis roots; details: 10 μM peptide in assay medium, compared with no peptide or Ag-16p
Excerpt: (§1) Mounting evidence supports that the conserved CLE motif represents the major functional domain of plant CLE proteins. Gr-CLE genes encode four different 12-aa CLE motifs (FIG. 1A). To examine the functional sufficiency of these nematode CLE motifs, we conducted in vitro root assays (Fiers et al. 2005) using synthetic dodecapeptides (GrCLE1-1-12p, GrCLE4-1-12p, GrCLE4-2-12p, and GrCLE4-3-12p) corresponding to the four CLE motifs of Gr-CLE proteins. A 16-aa peptide (Ag-16p) (Fiers et al. 2005) corresponding to the C-terminus of AGAMOUS that has no similarity with plant CLE motifs and a 12-aa CLV3 peptide (CLV3-12p) were used as negative and positive controls, respectively. In addition, several peptides, including a mutated GrCLE1-1 dodecapeptide (GrCLE1-1m-12p, with a Gly-to-Ala conversion as in clv3-1 and clv3-5 mutants), a 14-aa GrCLE1-1 peptide (GrCLE1-1-14p, with one additional N-terminal and one additional C-terminal residue compared to Gr-CLE1-1-12p), and three 13-aa peptides of GrCLE4-1-13p, GrCLE4-2-13p, and GrCLE4-3-13p (all contained an extra N-terminal lysine residue compared to the corresponding dodecapeptides), were synthesized and used in the in vitro root assays.
(§2) Peptides with a purity of >70% were synthesized (Sigma-Aldrich Corp., St. Louis, Mo., U.S.A) and dissolved in filter-sterilized 50 mM sodium phosphate buffer. Three Gr-CLE-1 related peptides were synthesized: GrCLE1-1-12p (12 aa, RVIPGGPDPLHN; SEQ ID NO: 12), GrCLE1-1m-12p (12 aa, RVIPGAPDPLHN; SEQ ID NO: 13, with a G-to-A conversion at position 6), and GrCLE1-1-14p (14 aa, KRVIPGGPDPLHNR; SEQ ID NO: 14). Six Gr-CLE-4 related peptides were synthesized: GrCLE4-1-12p (12 aa, RVAGAGPDPIHH; SEQ ID NO: 15), GrCLE4-1-13p (13 aa, KRVAGAGPDPIHH; SEQ ID NO: 16), GrCLE4-2-12p (12 aa, RAVPAGPDPKHH; SEQ ID NO: 17), GrCLE4-2-13p (13 aa, KRAVPAGPDPKHH; SEQ ID NO: 18), GrCLE4-3-12p (12 aa, RGAPAGPDP IHH; SEQ ID NO: 19), and GrCLE4-3-13p (13 aa, KRGAPAGPDPIHH; SEQ ID NO: 20). Positive and negative control peptides included CLV3-12p (12 aa, RTVPSGPDPLHH; SEQ ID NO: 21) and Ag-16p (16 aa, APNNHHYSSAGRQDQT; SEQ ID NO: 22) (Fiers et al., 2005).
(§3) For peptide treatments, seeds of wild-type Arabidopsis (Columbia-0) and potato, nonhost and host of G. rostochiensis, respectively, were surface-sterilized and plated on square plates (8-12 seeds per plate) containing the assay medium (Fiers et al. 2005, supra) with 10 μM of each peptide. Assay plates were placed vertically in a growth chamber and cultured at 23° C. for 16 h of light and 8 h of dark. The root length was measured from the base of the hypocotyl to the tip of the primary root at several time points after plating. Two independent experiments were conducted.

potato roots = assay: in vitro root assay with synthetic CLE peptides on potato roots; details: 10 μM peptide in assay medium, compared with no peptide or Ag-16p
Excerpt: as §1, §2, §3

potato hairy roots = assay: overexpression of Gr-CLE genes in potato hairy roots; details: measured at 4, 6, 8 and 10 days after dissecting; compared with vector control
Excerpt: To examine root meristems, primary root tips were excised from peptide treated Arabidopsis seedlings or from transgenic potato hairy roots and immediately mounted in water onto a glass slide. Roots were examined under an Olympus BX-50 microscope equipped with Nomarski optics and images were captured using a QImaging Retiga EXi digital CCD camera (QImaging, Surrey, BC, Canada). The root apical meristem (RAM) regions of individual primary roots that covered the distance from the position around the quiescent center to the position where elongated root cells immediately follow cytoplasm-dense meristematic cells were measured microscopically. The collected data were analyzed using the MetaMorph imaging analysis software (Universal Imaging Corporation, Downingtown, Pa., U.S.A.)
A. rhizogenes strain 15834 was transformed with individual transgene constructs of interest and used for the generation of potato hairy roots as described previously (Wang et al. 2007. Mol. Plant Pathol. 8:423-436) with some modifications. Potato stem pieces from tissue cultures were incubated with the transformed A. rhizogenes cell suspension for 10 mins, then transferred onto the callus induction medium containing 1×MS salts (Sigma-Aldrich), 26.7 μM Glycine, 4 μM Nicotinic Acid, 2.4 μM Pyridoxine HCL (Sigma-Aldrich), 1.2 μM Thiamine HCL (Sigma-Aldrich), 0.5 μM Folic Acid, 0.2 μM d-biotin (Sigma-Aldrich), 0.01% Myo-inositol (Acros, Morris Plains, N.J., U.S.A.), 3% sucrose, 0.001% 6-BAP (Sigma-Aldrich), 0.002% NAA (Sigma-Aldrich), and 1% agar and cultivated for four days at 24° C. without light. The infected stem pieces were then cultured on the propagation medium containing 1×MS salts, 1.2 mM NaH2PO4, 0.01% Myo-inositol, 0.1% Thiamine HCl, 3% sucrose, 1% agar, 50 μg/mL of kanamycin, and 238 μg/mL of timentin (GlaxoSmithKline). Timentin was used to inhibit the growth of A. rhizogenes 15834 and kanamycin was added to select for transformed roots. Approximately 12-15 days after root emergence, 1 cm-long root tips were dissected and cultured on vertical plates containing the propagation medium with 119 μg/mL of timentin and the root growth rate was measured at different time points.

KRAVPAGPDPKHH (LRAVPAGPDPLHH; listed as Globodera rostochiensis) [GrCLE4-2-13p, 13 aa peptide with extra N-terminal lysine]
suppression of root growth (length of main root) [1]: did not show activities on root suppression | suppression of root growth (length of main root) (potato roots): did not show activities on root suppression

KRGAPAGPDPIHH (LRGAPAGPDPIHH; listed as Globodera rostochiensis) [GrCLE4-3-13p, 13 aa peptide with extra N-terminal lysine]
suppression of root growth (length of main root) [1]: did not show activities on root suppression | suppression of root growth (length of main root) (potato roots): did not show activities on root suppression

KRVAGAGPDPIHH (LRVAGAGPDPIHH; listed as Globodera rostochiensis) [GrCLE4-1-13p, 13 aa peptide with extra N-terminal lysine]
suppression of root growth (length of main root) [1]: did not show activities on root suppression | suppression of root growth (length of main root) (potato roots): did not show activities on root suppression

KRVIPGGPDPLHNR (listed as Globodera rostochiensis) [GrCLE1-1-14p, 14 aa GrCLE1-1 peptide withone additional N-terminal and C-terminal residue]
suppression of root growth (length of main root) [1]: significantly shorter; also recorded: comparable level of root suppression activity as GrCLE1-1-12p | suppression of root growth (length of main root) (potato roots): significantly shorter

RAVPAGPDPKHH (RAVPAGPDPLHH; listed as Globodera rostochiensis) [GrCLE4-2-12p, 12 aa Gr-CLE-4 related peptide]
suppression of root growth (length of main root) [1]: significantly shorter | suppression of root growth (length of main root) ([1]; listed as Gr-CLE4-2-12p): suppressed root growth | suppression of root growth (length of main root) (potato roots): significantly shorter | suppression of root growth (length of main root) (potato roots; listed as Gr-CLE4-2-12p): suppressed root growth

RGAPAGPDP IHH (RGAPAGPDPIHH; listed as Globodera rostochiensis) [GrCLE4-3-12p, 12 aa Gr-CLE-4 related peptide]
suppression of root growth (length of main root) [1]: suppressed root growth; also recorded: significantly shorter | suppression of root growth (length of main root) (potato roots): suppressed root growth; also recorded: significantly shorter

RVAGAGPDPIHH (listed as Globodera rostochiensis) [GrCLE4-1-12p, 12 aa Gr-CLE-4 related peptide]
suppression of root growth (length of main root) [1]: suppressed root growth; also recorded: significantly shorter | suppression of root growth (length of main root) (potato roots): suppressed root growth; also recorded: significantly shorter

RVIPGAPDPLHN (listed as Globodera rostochiensis) [GrCLE1-1m-12p, mutated GrCLE1-1 dodecapeptide with a G-to-A conversion at position 6]
suppression of root growth (length of main root) [1]: significantly shorter | suppression of root growth (length of main root) (potato roots): significantly shorter

B1: Gr-CLE-4-D: G. rostochiensis CLE gene of class Gr-CLE-4, cDNA SEQ ID NO: 6 (nucleic acid, listed as Globodera rostochiensis)
DNA: ATCATAATTTCCAAAATCCCAATAAAAGCTTCCTCAATAAAGTAAATATGGCCAAGAACGCAATGCTTTGCCTGCTAATTTTGAGCGTTGTTCTCGCTCTCGCATTTGCTACGAATAAAAAGGATGATGAAGAACCGGAGAACCATTCGACCGGCATTTTTGGAAAGGTCGGACGAGTTGTGACCGTGGCACTTGCGATGTCGTCTCGTCTGGGAGGGGCTAACGCAACCCGAGGAGGTGGAGCTGTATATGGAAGAAACTTGAAATCCAATCAATTGCCAAACAACAATTGGATGGCGCCACCTCCTCCAATGGCAATGAGAAGTGCCAAAGTCTATGATTCGAAACATTCTCCTGCTGAATATCTTAAAAAATTTGCTCAAGACTTTCGCCGAAAAACCGGCACGCACTCCCAGCGGCATCACGAAGAAACAACACTGGAACAGGAGAAGCGTGGAGCGCCAGCTGGGCCCGACCCAATACATCACCAAGATACAACATTTGAACAGGAGAAGCGTGGAGCGCCAGCTGGGCCCGACCCAATACATCACCAAGATACAACACTGGAACAGGAGAAGCGTGTAGCGGGAGCTGGGCCCGACCCAATACATCACCAAGATACAAAATTTGAACAGGAGAAGCGTGGAGCGCCAGCTGGGCCCGACCCAATACATCACTGATGCTCTTATTCACAATGCTAAAATATTTTAGACTATAGATAAATTGCTAGCAACAGATAAATGCCTATTCAT
length of primary roots of transgenic potato hairy root lines (potato hairy roots): short root phenotype
